For 2 compounds, viability and MTD results are on record in patent US6645983B1, “Pharmaceutical compositions comprising 4-quinolones for treating cancers” (Laboratoire L. Lafon, priority 1999, dated 2003).

Where only a bound is given, the exact number is not on record here.

The first data set has as its system HCT-15. Put plainly: MTT test, cytotoxic activity on non-clonogenic cell lines. The class given is cell-based. Particulars: Homo sapiens, 10^−5 M, 72 hours of incubation, control condition = 100%, mean value, read-out: mean optical density as percentage of control, HCT-16. Put shortly:
(§1)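 Human cancer lines seeded at 20 000–50 000 cells/ml, allowed 24 h to attach, then exposed to compounds at 10^−5 to 10^−10 M versus solvent control.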
On the technique in general: Formazan colour is commonly taken as a measure of viable cells.
Regarding `CCOC(=O)Cn1cc(-c2ccc(OC)cc2)c(=O)c2c(OC)ccc(OC)c21` [CRL8381, Ethyl 2-[5,8-dimethoxy-3-(4-methoxyphenyl)-4-oxo-1,4-dihydro-1-quinolinyl]acetate], the viability at 10 µM came out at 90.5%.

As for `COc1ccc(-c2cn(CC#N)c3cc(OC)cc(OC)c3c2=O)cc1` [CRL8372, [5,7-Dimethoxy-3-(4-methoxyphenyl)-4-oxo-1,4-dihydro-1-quinolinyl]acetonitrile], the viability at 10 µM was determined as 84.3%.

The test system of the next data set is T-47D. The data set is described as above. The class given is cell-based. The conditions noted are these: Homo sapiens, T47D; 10^−5 M, 72 hours of incubation, control condition = 100%, mean value; read-out: mean optical density as percentage of control, T-47D. Put shortly: as §1
As to `CCOC(=O)Cn1cc(-c2ccc(OC)cc2)c(=O)c2c(OC)ccc(OC)c21` [CRL8381, Ethyl 2-[5,8-dimethoxy-3-(4-methoxyphenyl)-4-oxo-1,4-dihydro-1-quinolinyl]acetate], the viability at 10 µM was found to be 92.6%.

Turning to `COc1ccc(-c2cn(CC#N)c3cc(OC)cc(OC)c3c2=O)cc1` [CRL8372, [5,7-Dimethoxy-3-(4-methoxyphenyl)-4-oxo-1,4-dihydro-1-quinolinyl]acetonitrile], the viability at 10 µM amounted to 65.7%.

A further data set deals with PC-3. Described as above. It is filed as cell-based. The conditions noted are these: Homo sapiens, 10^−5 M, 72 hours of incubation, control condition = 100%, mean value, read-out: mean optical density as percentage of control, PC-3. The procedure, abridged: as §1
Turning to `CCOC(=O)Cn1cc(-c2ccc(OC)cc2)c(=O)c2c(OC)ccc(OC)c21` [CRL8381, Ethyl 2-[5,8-dimethoxy-3-(4-methoxyphenyl)-4-oxo-1,4-dihydro-1-quinolinyl]acetate], the viability at 10 µM was 79.1%.

As to `COc1ccc(-c2cn(CC#N)c3cc(OC)cc(OC)c3c2=O)cc1` [CRL8372, [5,7-Dimethoxy-3-(4-methoxyphenyl)-4-oxo-1,4-dihydro-1-quinolinyl]acetonitrile], the viability at 10 µM is 110%.

The test system of the next data set is A549. The data set is described as above. The class given is cell-based. The conditions noted are these: Homo sapiens, 10^−5 M, 72 hours of incubation, control condition = 100%, mean value, read-out: mean optical density as percentage of control, A549. Put shortly:
as §1
Turning to `CCOC(=O)Cn1cc(-c2ccc(OC)cc2)c(=O)c2c(OC)ccc(OC)c21` [CRL8381, Ethyl 2-[5,8-dimethoxy-3-(4-methoxyphenyl)-4-oxo-1,4-dihydro-1-quinolinyl]acetate], the viability at 10 µM came to 73.8%.

`COc1ccc(-c2cn(CC#N)c3cc(OC)cc(OC)c3c2=O)cc1` [CRL8372, [5,7-Dimethoxy-3-(4-methoxyphenyl)-4-oxo-1,4-dihydro-1-quinolinyl]acetonitrile]: the viability at 10 µM came to 93.4%.

The next data set has as its system LoVo. Described as above. The class given is cell-based. Particulars: Homo sapiens, 10^−5 M, 72 hours of incubation, control condition = 100%, mean value, read-out: mean optical density as percentage of control, LoVo. Put shortly: as §1
For the compound `CCOC(=O)Cn1cc(-c2ccc(OC)cc2)c(=O)c2c(OC)ccc(OC)c21` [CRL8381, Ethyl 2-[5,8-dimethoxy-3-(4-methoxyphenyl)-4-oxo-1,4-dihydro-1-quinolinyl]acetate], the viability at 10 µM was 105%.

For the compound `COc1ccc(-c2cn(CC#N)c3cc(OC)cc(OC)c3c2=O)cc1` [CRL8372, [5,7-Dimethoxy-3-(4-methoxyphenyl)-4-oxo-1,4-dihydro-1-quinolinyl]acetonitrile], the viability at 10 µM worked out at 83.9%.

For a further data set, the system named is MCF7. Described as above. Particulars: Homo sapiens, 10^−5 M, 72 hours of incubation, control condition = 100%, mean value, read-out: mean optical density as percentage of control, MCF7. The class given is cell-based. Put shortly:
as §1
Consider `CCOC(=O)Cn1cc(-c2ccc(OC)cc2)c(=O)c2c(OC)ccc(OC)c21` [CRL8381, Ethyl 2-[5,8-dimethoxy-3-(4-methoxyphenyl)-4-oxo-1,4-dihydro-1-quinolinyl]acetate], for which the viability at 10 µM is 67.2%.

`COc1ccc(-c2cn(CC#N)c3cc(OC)cc(OC)c3c2=O)cc1` [CRL8372, [5,7-Dimethoxy-3-(4-methoxyphenyl)-4-oxo-1,4-dihydro-1-quinolinyl]acetonitrile]: the viability at 10 µM came to 96.6%.

Another data set concerns U-87MG. Described as above. Particulars: Homo sapiens, U-87 MG; 10^−5 M, 72 hours of incubation, control condition = 100%, mean value; read-out: mean optical density as percentage of control, U-87MG. It is filed as cell-based. Put shortly: as §1
In the case of `CCOC(=O)Cn1cc(-c2ccc(OC)cc2)c(=O)c2c(OC)ccc(OC)c21` [CRL8381, Ethyl 2-[5,8-dimethoxy-3-(4-methoxyphenyl)-4-oxo-1,4-dihydro-1-quinolinyl]acetate], the viability at 10 µM amounted to 48.1%.

With `COc1ccc(-c2cn(CC#N)c3cc(OC)cc(OC)c3c2=O)cc1` [CRL8372, [5,7-Dimethoxy-3-(4-methoxyphenyl)-4-oxo-1,4-dihydro-1-quinolinyl]acetonitrile], the viability at 10 µM stood at 92.9%.

The test system of the next data set is A-427. The data set is described as above. It is filed as cell-based. Particulars: Homo sapiens, 10^−5 M, 72 hours of incubation, control condition = 100%, mean value, read-out: mean optical density as percentage of control, A-427. The procedure, abridged:
as §1
With `CCOC(=O)Cn1cc(-c2ccc(OC)cc2)c(=O)c2c(OC)ccc(OC)c21` [CRL8381, Ethyl 2-[5,8-dimethoxy-3-(4-methoxyphenyl)-4-oxo-1,4-dihydro-1-quinolinyl]acetate], the viability at 10 µM was 84.2%.

`COc1ccc(-c2cn(CC#N)c3cc(OC)cc(OC)c3c2=O)cc1` [CRL8372, [5,7-Dimethoxy-3-(4-methoxyphenyl)-4-oxo-1,4-dihydro-1-quinolinyl]acetonitrile]: the viability at 10 µM stood at 93.9%.

Another data set has as its system U-373MG. The description is as above. Particulars: Homo sapiens, U373 MG; 10^−5 M, 72 hours of incubation, control condition = 100%, mean value; read-out: mean optical density as percentage of control, U-373MG. The class given is cell-based. Put shortly: as §1
As for `CCOC(=O)Cn1cc(-c2ccc(OC)cc2)c(=O)c2c(OC)ccc(OC)c21` [CRL8381, Ethyl 2-[5,8-dimethoxy-3-(4-methoxyphenyl)-4-oxo-1,4-dihydro-1-quinolinyl]acetate], the viability at 10 µM was determined as 91.8%.

For the compound `COc1ccc(-c2cn(CC#N)c3cc(OC)cc(OC)c3c2=O)cc1` [CRL8372, [5,7-Dimethoxy-3-(4-methoxyphenyl)-4-oxo-1,4-dihydro-1-quinolinyl]acetonitrile], the viability at 10 µM was 94.8%.

Tested on in a further data set: not listed separately
Nature of the data set: Determination of the maximum tolerated dose (MTD). The conditions noted are these: B6D2F1/Jico, mouse, in vivo, ip; single intraperitoneal administration, doses 2.5 to 160 mg/kg, survival over 14 days. The procedure, abridged: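 Mice were 4- to 6-week-old B6D2F1/Jico. They received a single intraperitoneal dose of 2.5 to 160 mg/kg, and survival and body weight were followed for 14 days. MTD is given in mg/kg and is capped at 160 mg/kg by default.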
The MTD is the highest dose tested that stayed within the study's limit of toxicity. Low readings indicate a narrow tolerated range, high ones a wide tolerated range. Turning to `CCOC(=O)Cn1cc(-c2ccc(OC)cc2)c(=O)c2c(OC)ccc(OC)c21` [CRL8381, Ethyl 2-[5,8-dimethoxy-3-(4-methoxyphenyl)-4-oxo-1,4-dihydro-1-quinolinyl]acetate], the MTD at 14 day was above 160 mg/kg.

On to `COc1ccc(-c2cn(CC#N)c3cc(OC)cc(OC)c3c2=O)cc1` [CRL8372, [5,7-Dimethoxy-3-(4-methoxyphenyl)-4-oxo-1,4-dihydro-1-quinolinyl]acetonitrile], for which the MTD at 14 day was above 160 mg/kg.

In another data set the test system is J82. Put plainly: MTT test, cytotoxic activity on non-clonogenic cell lines. The class given is cell-based. The conditions noted are these: Homo sapiens, 10^−5 M, 72 hours of incubation, control condition = 100%, mean value, read-out: mean optical density as percentage of control, J82. The procedure, abridged:
(§2)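 Human bladder cancer lines were seeded at 20 000–50 000 cells/ml and, after 24 h, exposed to compounds at 10^−5 to 10^−10 M against a solvent control. Formazan was dissolved in DMSO and viability was read by spectrophotometric optical density.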
For the compound `CCOC(=O)Cn1cc(-c2ccc(OC)cc2)c(=O)c2c(OC)ccc(OC)c21` [CRL8381, Ethyl 2-[5,8-dimethoxy-3-(4-methoxyphenyl)-4-oxo-1,4-dihydro-1-quinolinyl]acetate], the viability at 10 µM came out at 90.9%.

Consider `COc1ccc(-c2cn(CC#N)c3cc(OC)cc(OC)c3c2=O)cc1` [CRL8372, [5,7-Dimethoxy-3-(4-methoxyphenyl)-4-oxo-1,4-dihydro-1-quinolinyl]acetonitrile], for which the viability at 10 µM was found to be 93%.

For a further data set, the system named is T24. The description is as above. It is filed as cell-based. Particulars: Homo sapiens, T-24; 10^−5 M, 72 hours of incubation, control condition = 100%, mean value; read-out: mean optical density as percentage of control, T24. Put shortly:
as §2
Take `CCOC(=O)Cn1cc(-c2ccc(OC)cc2)c(=O)c2c(OC)ccc(OC)c21` [CRL8381, Ethyl 2-[5,8-dimethoxy-3-(4-methoxyphenyl)-4-oxo-1,4-dihydro-1-quinolinyl]acetate]: the viability at 10 µM was found to be 83.2%.

For the compound `COc1ccc(-c2cn(CC#N)c3cc(OC)cc(OC)c3c2=O)cc1` [CRL8372, [5,7-Dimethoxy-3-(4-methoxyphenyl)-4-oxo-1,4-dihydro-1-quinolinyl]acetonitrile], the viability at 10 µM amounted to 81.2%.

Another data set deals with SW1088. The description is as above. Particulars: Homo sapiens, 10^−5 M, 72 hours of incubation, control condition = 100%, mean value, read-out: mean optical density as percentage of control, SW1088. It is filed as cell-based. Put shortly: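 Human astrocytoma SW1088 cells seeded, grown 24 h at 37° C, 5% CO2, then exposed to compounds at 10^−5 to 10^−10 M versus solvent control. Viability by MTT reduction: 3 h MTT incubation, formazan dissolved in DMSO and read by spectrophotometry.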
`CCOC(=O)Cn1cc(-c2ccc(OC)cc2)c(=O)c2c(OC)ccc(OC)c21` [CRL8381, Ethyl 2-[5,8-dimethoxy-3-(4-methoxyphenyl)-4-oxo-1,4-dihydro-1-quinolinyl]acetate]: the viability at 10 µM came out at 55.9%.

Turning to `COc1ccc(-c2cn(CC#N)c3cc(OC)cc(OC)c3c2=O)cc1` [CRL8372, [5,7-Dimethoxy-3-(4-methoxyphenyl)-4-oxo-1,4-dihydro-1-quinolinyl]acetonitrile], the viability at 10 µM worked out at 98.1%.
